Counter-ions that a name gives are not always drawn. Like-named read-outs stand apart in the source and are kept apart here.
Legend:
[1] = system: methicillin-susceptible S. aureus (MSSA), MRSA and mutants thereof; test: MIC measurement, Test Example 3 (MSSA, MRSA and sequential gyrA/grlA quinolone-resistant mutants); assay type: cell-based, Staphylococcus aureus; conditions: Staphylococcus aureus
Outline: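 Broth microdilution in cation-adjusted Mueller Hinton broth: inoculum from overnight TSB cultures set to A578 0.3, then 500-fold diluted and added 1:1 to serial compound concentrations.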

[2] = system: MRSA, CA-MRSA and MSSA of Staphylococcus aureus; test: MIC measurement, Test Example 4 (MRSA, CA-MRSA and MSSA strains); assay type: cell-based; conditions: Staphylococcus aureus
Outline: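 S. aureus strains (FDA209P control) grown overnight in TSB at 37° C, resuspended in CAMHB, adjusted to A578 0.3 and diluted 500-fold. Equal volume added to CAMHB with serial compound concentrations, incubated statically overnight at 37° C. MIC read visually as lowest concentration without turbidity.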

[3] = system: VISA clinical isolates of MRSA (VI-MRSA) and of MSSA (VI-MSSA); test: microbe, parasite or virus in culture; assay type: cell-based, Staphylococcus aureus
Outline: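 Strains were grown overnight at 37° C in TSB, adjusted in CAMHB to 0.3 absorbance at 578 nm and diluted 500-fold before equal-volume addition to compound dilutions.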

VRSA clinical isolates = test: microbe, parasite or virus in culture; assay type: cell-based; conditions: Staphylococcus aureus
Description: Each of the bacterial strains listed in Table 1-1 was shake-cultured at 37° C. overnight in 4 mL of a medium (Tryptical Soy Broth: TSB, product of Becton Dickinson and Company). FDA209P was used as a control.
After completion of culturing, the resultant culture was suspended in a cation-adjusted Mueller Hinton Broth (CAMHB, product of Becton Dickinson and Company). Then, the obtained bacterial culture was adjusted in absorbance with the CAMHB so that the absorbance at 578 nm of the bacterial culture was adjusted to 0.3 measured by an absorption spectrometer. In addition, the resultant bacterial culture was 500-fold diluted with the CAMHB.
Each of the 500-fold diluted, pre-cultured bacterial cultures was added at 50 μL/well to the CAMHB containing the quinolones and the nybomycins at various concentrations (50 μL/well), followed by statically culturing at 37° C. overnight.
After completion of culturing, the growth of the bacteria was visually determined based on turbidity to measure MIC in each bacterial strain.
Here, the glycopeptides used were VCM and TEIC. The β-lactam used was OXA.

Structure (SMILES): NC1CCN(c2nc3c(cc2F)c(=O)c(C(=O)O)cn3-c2ccc(F)cc2F)C1 (stereo not drawn) [TFLX, tosufloxacin tosylate]
- MIC ([1]; FDA209P / MRSA / MSSA, FDA209P (MSSA), control, read-out: MIC): ≤ 0.063 µg/mL
- MIC ([1]; MR5867 (MRSA), clinical isolate parent strain, no mutation): ≤ 0.063 µg/mL
- MIC ([1]; MR5867-3, third-step mutant, further grlA S80F): > 128 µg/mL
- MIC ([1]; MR5867-4, fourth-step mutant, further gyrA E88K): > 128 µg/mL
- MIC ([1]; MS5935-1, first-step quinolone-resistant mutant, grlA S80F): 1 µg/mL
- MIC ([1]; MS5935-2, second-step mutant, further gyrA S84L): 64 µg/mL
- MIC ([1]; MS5935-3, third-step mutant, further grlA E84K): > 128 µg/mL
- MIC ([1]; MS5952-1, first-step quinolone-resistant mutant, grlA S80Y): 2 µg/mL
- MIC ([1]; MS5952-3, third-step mutant, further grlA A116V): > 128 µg/mL
- MIC ([2]; ATCC 29213 / MRSA / MSSA, ATCC 29213, MSSA): ≤ 0.063 µg/mL
- MIC ([2]; COL, MRSA): 0.125 µg/mL
- MIC ([2]; FDA209P / MRSA / MSSA, FDA209P, MSSA): ≤ 0.063 µg/mL
- MIC ([2]; ISA12-1, MRSA): ≤ 0.063 µg/mL
- MIC ([2]; ISA12-2, MRSA): ≤ 0.063 µg/mL
- MIC ([2]; ISA35-1, MRSA): 0.25 µg/mL
- MIC ([2]; ISA37-1, MSSA): ≤ 0.063 µg/mL
- MIC ([2]; ISA49-1, MSSA): ≤ 0.063 µg/mL
- MIC ([2]; ISA51-1, MSSA): ≤ 0.063 µg/mL
- MIC ([2]; ISA56-3, MRSA): ≤ 0.063 µg/mL
- MIC ([2]; ISA58-1, MRSA): 0.5 µg/mL
- MIC ([2]; ISA62-1, MRSA): ≤ 0.063 µg/mL
- MIC ([2]; ISA73-1, MSSA): ≤ 0.063 µg/mL
- MIC ([2]; KBSA32, MRSA): ≤ 0.063 µg/mL
- MIC ([2]; KBSA34, MRSA): ≤ 0.063 µg/mL
- MIC ([2]; KBSA72, MRSA): > 128 µg/mL
- MIC ([2]; KBSA96, MRSA): 16 µg/mL
- MIC ([2]; KBSA171, MRSA): 8 µg/mL
- MIC ([2]; KSA24, MRSA): 8 µg/mL
- MIC ([2]; KSA31, MRSA): 4 µg/mL
- MIC ([2]; KSA36, MRSA): > 128 µg/mL
- MIC ([2]; MRSA / MSSA / NCTC 8325, NCTC 8325, MSSA): ≤ 0.063 µg/mL
- MIC ([2]; MRSA / MSSA / USA300, USA300 FPR3757, CA-MRSA): 16 µg/mL
- MIC ([2]; MW2, CA-MRSA): ≤ 0.063 µg/mL
- MIC ([2]; N315, MRSA): ≤ 0.063 µg/mL
- MIC ([3]; Staphylococcus aureus, 99/3700-W, VI-MRSA, The United Kingdom): 8 µg/mL
- MIC ([3]; Staphylococcus aureus, 99/3759-V, VI-MRSA, The United Kingdom): 16 µg/mL
- MIC ([3]; Staphylococcus aureus, 28160, VI-MRSA, South African Republic): 32 µg/mL
- MIC ([3]; Staphylococcus aureus, 98141, VI-MRSA, France): 32 µg/mL
- MIC ([3]; Staphylococcus aureus, A7 (JCSC4842), VI-MRSA, Taiwan): 32 µg/mL
- MIC ([3]; Staphylococcus aureus, AMC11094, VI-MRSA, Korea): > 128 µg/mL
- MIC ([3]; Staphylococcus aureus, B7 (JCSC4852), VI-MRSA, Taiwan): 16 µg/mL
- MIC ([3]; Staphylococcus aureus, BR1, VI-MRSA, Brazil): 128 µg/mL
- MIC ([3]; Staphylococcus aureus, BR2, VI-MRSA, Brazil): 32 µg/mL
- MIC ([3]; Staphylococcus aureus, BR3, VI-MRSA, Brazil): 32 µg/mL
- MIC ([3]; Staphylococcus aureus, BR4, VI-MRSA, Brazil): > 128 µg/mL
- MIC ([3]; Staphylococcus aureus, BR5, VI-MRSA, Brazil): > 128 µg/mL
- MIC ([3]; Staphylococcus aureus, HIP06297, VI-MRSA, America): 128 µg/mL
- MIC ([3]; Staphylococcus aureus, HIP06854, VI-MRSA, America): 128 µg/mL
- MIC ([3]; Staphylococcus aureus, HIP07920, VI-MRSA, America): 4 µg/mL
- MIC ([3]; Staphylococcus aureus, HIP07930, VI-MRSA, America): > 128 µg/mL
- MIC ([3]; Staphylococcus aureus, HIP08926, VI-MRSA, America): 128 µg/mL
- MIC ([3]; Staphylococcus aureus, HIP09143, VI-MRSA, America): > 128 µg/mL
- MIC ([3]; Staphylococcus aureus, HIP09313, VI-MRSA, America): 128 µg/mL
- MIC ([3]; Staphylococcus aureus, HIP09433, VI-MRSA, America): > 128 µg/mL
- MIC ([3]; Staphylococcus aureus, HIP09662, VI-MRSA, America): > 128 µg/mL
- MIC ([3]; Staphylococcus aureus, HIP09735, VI-MRSA, America): > 128 µg/mL
- MIC ([3]; Staphylococcus aureus, HIP09737, VI-MSSA, America): > 128 µg/mL
- MIC ([3]; Staphylococcus aureus, HIP09740, VI-MRSA, America): > 128 µg/mL
- MIC ([3]; Staphylococcus aureus, HIP10267, VI-MRSA, America): > 128 µg/mL
- MIC ([3]; Staphylococcus aureus, HIP10540, VI-MRSA, America): 128 µg/mL
- MIC ([3]; Staphylococcus aureus, HIP12864, VI-MRSA, America): > 128 µg/mL
- MIC ([3]; Staphylococcus aureus, HIP13036, VI-MRSA, America): 64 µg/mL
- MIC ([3]; Staphylococcus aureus, HIP13057, VI-MRSA, America): > 128 µg/mL
- MIC ([3]; Staphylococcus aureus, IL (HIP7737), VI-MRSA, America): > 128 µg/mL
- MIC ([3]; Staphylococcus aureus, JCSC7193, VI-MRSA, Thailand): 128 µg/mL
- MIC ([3]; Staphylococcus aureus, JCSC7195, VI-MRSA, Thailand): > 128 µg/mL
- MIC ([3]; Staphylococcus aureus, JCSC7203, VI-MRSA, Thailand): 128 µg/mL
- MIC ([3]; Staphylococcus aureus, LIM2, VI-MRSA, France): > 128 µg/mL
- MIC ([3]; Staphylococcus aureus, LY-1999-01, VI-MSSA, Oman): 8 µg/mL
- MIC ([3]; Staphylococcus aureus, LY-1999-03, VI-MRSA, Oman): 32 µg/mL
- MIC ([3]; Staphylococcus aureus, MI (HIP5827), VI-MRSA, America): 16 µg/mL
- MIC ([3]; Staphylococcus aureus, MRSA / MSSA / NRS 76 / VISA, NRS76, VI-MSSA, America): > 128 µg/mL
- MIC ([3]; Staphylococcus aureus, MRSA / MSSA / NRS 79 / VISA, NRS79, VI-MRSA, America): > 128 µg/mL
- MIC ([3]; Staphylococcus aureus, MRSA / MSSA / NRS 118 / VISA, NRS118, VI-MRSA, America): > 128 µg/mL
- MIC ([3]; Staphylococcus aureus, MRSA / MSSA / NRS 126 / VISA, NRS126, VI-MRSA, America): 128 µg/mL
- MIC ([3]; Staphylococcus aureus, Mu3, VI-MRSA, Japan): 16 µg/mL
- MIC ([3]; Staphylococcus aureus, Mu50, VI-MRSA, Japan): > 128 µg/mL
- MIC ([3]; Staphylococcus aureus, NJ (HIP5836), VI-MRSA, America): 32 µg/mL
- MIC ([3]; Staphylococcus aureus, P1V44, VI-MSSA, Belgium): 8 µg/mL
- MIC ([3]; Staphylococcus aureus, PC, VI-MRSA, America): 128 µg/mL
- MIC ([3]; Staphylococcus aureus, SA MER-S6, VI-MSSA, France): 0.25 µg/mL
- MIC ([3]; Staphylococcus aureus, SA MER-S12, VI-MSSA, France): 0.25 µg/mL
- MIC ([3]; Staphylococcus aureus, SA MER-S20, VI-MSSA, France): 1 µg/mL
- MIC (VRSA clinical isolates; VRS1, VRSA, Michigan): 4 µg/mL
- MIC (VRSA clinical isolates; VRS2, VRSA, Pennsylvania): > 128 µg/mL
- MIC (VRSA clinical isolates; VRS3, VRSA, New York): > 128 µg/mL
- MIC (VRSA clinical isolates; VRS4, VRSA, New York): > 128 µg/mL
- MIC (VRSA clinical isolates; VRS5, VRSA, Michigan): > 128 µg/mL
- MIC (VRSA clinical isolates; VRS6, VRSA, Michigan): > 128 µg/mL
- MIC (VRSA clinical isolates; VRS7, VRSA, Michigan): 4 µg/mL

— patent publication US20120258980A1, “Antibacterial Agent for Drug-Resistant Bacteria, Method for Screening for Same, and Use of Same” (priority 2009, published 2012)
